# Measurements published in patent publication US12384775B2, “Pyrimid-2-yl-pyrazole compounds as IRAK inhibitors” (Rigel Pharmaceuticals, Inc., priority 2022, dated 2025).
# Tests used:
# IRAK1 = IRAK1 (Homo sapiens, UniProt P51617); experiment: IRAK1 ADP-Glo kinase assay; format: biochemical; conditions: read-out: IRAK1 ADP-Glo Kinase, 8 pt EC50
# [1] = test system: TLR4-induced IL-23 production in human primary dendritic cells (DC); experiment: IL23-p19 ELISA, dendritic cells (DC), LPS; format: cell-based; conditions: Dendritic cell; dendritic cells from human PBMC, IFNγ primed, LPS 1 μg/ml, 18 h; read-out: IL23-p19 ELISA, Dendritic, LPS, 10 pt EC50
# Procedure: Human PBMC cells (400 million) obtained from the vendor were transferred into a T-175 flask containing 15 ml RPMI media (10% FBS) and incubate for 2 hours at 37° C. After 2 hours, the media including floating cells was aspirated out carefully and 12 ml of fresh RPMI media (10% FBS) containing GMCSF (100 ng/ml) and IL4 (20 ng/ml) was added, and the flask was kept in a 37° C. incubator for 7 days.
# After 3 days, fresh GMCSF (100 ng/ml) and IL4 (20 ng/ml) were added to the flask and the incubation continued. After 7 days, the fully differentiated cells were harvested by spinning down (1200 rpm/5 min) and aspirating the media. […]
# 155 μl of the supernatant was harvested from each well carefully (without the tip touching the bottom of the well) and to the remaining 50 μl/well of the cell culture plate was added 50 μl of Cell Titer Glo reagent. The mixture was incubated for 1-2 minutes on a shaker and the plate was read for luminescence intensity to determine the compound cytotoxicity. […]
# After 45 minutes, the plates were washed with TBST 4× and 100 ul/well Super Signal ELISA Pico Chemiluminescent Substrate from Pierce (3.5 ml A+3.5 ml B+3.5 ml MQ water) was added. The plates were shaken for 1-2 minutes then read on a plate reader. […]
# [2] = test system: IL-10-induced production of the cytokine IL-6 in primary human endothelial cells; experiment: IL-6 production in primary human endothelial cells; format: cell-based
# Sequence of IRAK1 (P51617 whole entry): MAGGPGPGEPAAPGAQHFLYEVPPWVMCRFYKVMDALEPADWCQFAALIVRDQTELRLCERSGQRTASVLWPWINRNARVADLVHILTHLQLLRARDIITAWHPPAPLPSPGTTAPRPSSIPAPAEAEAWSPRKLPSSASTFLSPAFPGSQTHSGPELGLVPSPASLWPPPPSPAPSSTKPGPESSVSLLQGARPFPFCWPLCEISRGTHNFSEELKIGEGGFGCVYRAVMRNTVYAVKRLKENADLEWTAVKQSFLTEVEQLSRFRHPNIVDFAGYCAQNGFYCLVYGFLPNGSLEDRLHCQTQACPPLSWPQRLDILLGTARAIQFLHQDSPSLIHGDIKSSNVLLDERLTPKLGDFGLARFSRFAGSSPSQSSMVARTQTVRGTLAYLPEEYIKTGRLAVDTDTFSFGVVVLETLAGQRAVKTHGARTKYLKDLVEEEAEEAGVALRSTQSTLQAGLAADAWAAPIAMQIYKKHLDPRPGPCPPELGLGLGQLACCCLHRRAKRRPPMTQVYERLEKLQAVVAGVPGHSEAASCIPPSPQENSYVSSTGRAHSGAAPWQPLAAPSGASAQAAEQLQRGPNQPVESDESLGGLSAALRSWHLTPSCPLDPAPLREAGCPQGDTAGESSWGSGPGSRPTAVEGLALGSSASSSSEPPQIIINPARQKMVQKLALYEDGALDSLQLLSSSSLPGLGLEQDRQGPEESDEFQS
smiles,measurement,setting,value
"CCO[C@H]1CC[C@H](n2cc(NC(=O)c3csc(-c4cn[nH]c4)n3)c(-c3ncccn3)n2)CC1 [Compound I-1, N-(1-((1r,4r)-4-ethoxycyclohexyl)-3-(pyrimidin-2-yl)-1H-pyrazol-4-yl)-2-(1H-pyrazol-4-yl)thiazole-4-carboxamide]",EC50,IRAK1,8.1 nM
same,EC50,[1],180 nM
same,IL-10-induced production of the cytokine IL-6 in primary human endothelial cells,[2],potently inhibits
